Data on 27 molecules can be found in patent publication US9334264B2, “NAMPT inhibitors” (AbbVie Inc., priority 2012, dated 2016).

Test [1] concerns the target NAMPT (human, recombinant, C-terminally His-tagged) (Homo sapiens, UniProt P43490). The experiment in a line: Time-Resolved Fluorescence Resonance Energy Transfer (TR-FRET) Binding Assay of NAMPT. The note with it: absence of substrates; 6.8 nM NAMPT, 200 nM probe, equilibrated 3 hours. In outline:
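Displacement of 200 nM Oregon Green-labelled nicotinamide-competitive probe from 6.8 nM His-tagged NAMPT, detected with 1 nM Tb-anti-His; HEPES pH 7.5, 2% DMSO, 3 h room temperature. Em520/Em495 ratios normalized and fit four-parameter logistic for IC50.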
On the technique in general: In TR-FRET formats the signal depends on donor and acceptor labels being close together.

In another test the target is NAMPT (Homo sapiens, UniProt P43490). The experiment in a line: Time-Resolved Fluorescence Resonance Energy Transfer (TR-FRET) Binding Assay of NAMPT with PRPP. To be noted: 200 μM PRPP and 2.5 mM ATP; 2 nM NAMPT, 2 nM probe, equilibrated 16 hours. In outline:
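Binding was measured by TR-FRET with 2 nM NAMPT, 2 nM probe and 1 nM Tb-anti-His antibody in the presence of 200 μM PRPP and 2.5 mM ATP, with 2% DMSO. Equilibration lasted 16 h before reading, allowing possible enzymatic modification of compounds.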

A value given as a limit tells only on which side of the number the result lay.

One may read the IC50 as the concentration that gives 50% inhibition.

Chain of NAMPT (P43490 whole entry): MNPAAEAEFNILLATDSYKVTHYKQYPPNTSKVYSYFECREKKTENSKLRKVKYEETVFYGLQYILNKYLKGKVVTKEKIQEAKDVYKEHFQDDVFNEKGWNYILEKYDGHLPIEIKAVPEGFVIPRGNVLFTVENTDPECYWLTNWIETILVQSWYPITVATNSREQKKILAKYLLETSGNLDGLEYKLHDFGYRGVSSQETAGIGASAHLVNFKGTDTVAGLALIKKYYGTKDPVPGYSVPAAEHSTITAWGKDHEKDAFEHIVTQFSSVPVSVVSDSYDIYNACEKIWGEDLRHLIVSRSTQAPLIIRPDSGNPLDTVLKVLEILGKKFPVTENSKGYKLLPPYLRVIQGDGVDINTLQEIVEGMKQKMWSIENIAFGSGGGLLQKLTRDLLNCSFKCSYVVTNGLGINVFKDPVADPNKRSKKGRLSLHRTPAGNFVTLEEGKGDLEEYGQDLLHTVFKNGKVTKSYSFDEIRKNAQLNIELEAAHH
Chain of NAMPT (human, recombinant, C-terminally His-tagged) (P43490 whole entry): as above

`Cc1cc(C(=O)N(CCC(C)C)c2ncc(C(=O)NCCCn3ccnc3)s2)no1` [Example 135, N-(5-{[3-(1H-imidazol-1-yl)propyl]carbamoyl}-1,3-thiazol-2-yl)-5-methyl-N-(3-methylbutyl)-1,2-oxazole-3-carboxamide]: the results for the IC50 (in test [1]; at NAMPT) were 93.7 nM and 0.169 nM, respectively.

In the case of `COCCC(=O)N(Cc1cnn(C)c1)c1ncc(C(=O)NCCCn2ccnc2)s1` [Example 111, N-[3-(1H-imidazol-1-yl)propyl]-2-{(3-methoxypropanoyl)[(1-methyl-1H-pyrazol-4-yl)methyl]amino}-1,3-thiazole-5-carboxamide], the IC50 in test [1] was > 10000 nM; on NAMPT it was 5.87 nM.

Regarding `COCCC(=O)N(Cc1ccc(F)cc1)c1ncc(C(=O)NCCCn2ccnc2)s1` [Example 25, 2-[(4-fluorobenzyl)(3-methoxypropanoyl)amino]-N-[3-(1H-imidazol-1-yl)propyl]-1,3-thiazole-5-carboxamide], the results for the IC50 (in test [1]; at NAMPT) were 1630 nM and 1.4 nM, respectively.

For the molecule `COCCC(=O)N(Cc1ccc(C#N)cc1)c1ncc(C(=O)NCCCn2ccnc2)s1` [Example 62, 2-[(4-cyanobenzyl)(3-methoxypropanoyl)amino]-N-[3-(1H-imidazol-1-yl)propyl]-1,3-thiazole-5-carboxamide], the IC50 in test [1] worked out at 810 nM; at NAMPT it was 1.08 nM.

Take `CCN(CC)C(=O)CN(Cc1ccc(F)cc1)c1ncc(C(=O)NCCCn2ccnc2)s1` [Example 21, 2-{[2-(diethylamino)-2-oxoethyl](4-fluorobenzyl)amino}-N-[3-(1H-imidazol-1-yl)propyl]-1,3-thiazole-5-carboxamide]: the IC50 was found to be 996 nM in test [1] and 505 nM on NAMPT.

In the case of `O=C(NCCCn1ccnc1)c1cnc(N(Cc2ccc(F)cc2)C(=O)NCC2CCCCO2)s1` (stereo not drawn) [Example 81, 2-{(4-fluorobenzyl)[(tetrahydro-2H-pyran-2-ylmethyl)carbamoyl]amino}-N-[3-(1H-imidazol-1-yl)propyl]-1,3-thiazole-5-carboxamide], the IC50 amounted to 5280 nM in test [1] and 1.78 nM at NAMPT.

For the molecule `CN(C)C1CCN(CC(=O)N(Cc2ccc(F)cc2)c2ncc(C(=O)NCCCn3ccnc3)s2)C1` (stereo not drawn) [Example 39, 2-[{[3-(dimethylamino)pyrrolidin-1-yl]acetyl}(4-fluorobenzyl)amino]-N-[3-(1H-imidazol-1-yl)propyl]-1,3-thiazole-5-carboxamide], the IC50 in test [1] is 2390 nM; at NAMPT it was 0.938 nM.

As to `CCC(COC)NC(=O)N(Cc1ccc(F)cc1)c1ncc(C(=O)NCCCn2ccnc2)s1` (stereo not drawn) [Example 84, 2-{(4-fluorobenzyl)[(1-methoxybutan-2-yl)carbamoyl]amino}-N-[3-(1H-imidazol-1-yl)propyl]-1,3-thiazole-5-carboxamide], the IC50 in test [1] was found to be 3200 nM; at NAMPT, 1.72 nM.

As to `CC(C)CCN(C(=O)[C@H](C)Oc1ccccc1)c1ncc(C(=O)NCCCn2ccnc2)s1` [Example 134, N-[3-(1H-imidazol-1-yl)propyl]-2-{(3-methylbutyl)[(2S)-2-phenoxypropanoyl]amino}-1,3-thiazole-5-carboxamide], the results for the IC50 (in test [1]; on NAMPT) were 200 nM and 0.617 nM, respectively.

With `COCCC(=O)N(CC1COCCO1)c1ncc(C(=O)NCCCn2ccnc2)s1` (stereo not drawn) [Example 181, 2-[(1,4-dioxan-2-ylmethyl)(3-methoxypropanoyl)amino]-N-[3-(1H-imidazol-1-yl)propyl]-1,3-thiazole-5-carboxamide], the results for the IC50 (in test [1]; on NAMPT) were > 10000 nM and 0.556 nM, respectively.

With `COCCC(=O)N(Cc1ccnc(OC)c1)c1ncc(C(=O)NCCCn2ccnc2)s1` [Example 94, N-[3-(1H-imidazol-1-yl)propyl]-2-{(3-methoxypropanoyl)[(2-methoxypyridin-4-yl)methyl]amino}-1,3-thiazole-5-carboxamide], the IC50 in test [1] amounted to 2870 nM; at NAMPT, 1.22 nM.

On to `COCCC(=O)N(Cc1ccc(Cl)cn1)c1ncc(C(=O)NCCCn2ccnc2)s1` [Example 96, 2-{[(5-chloropyridin-2-yl)methyl](3-methoxypropanoyl)amino}-N-[3-(1H-imidazol-1-yl)propyl]-1,3-thiazole-5-carboxamide], for which the IC50 in test [1] came to 4190 nM; at NAMPT, 3.35 nM.

Consider `O=C(NCCCn1ccnc1)c1cnc(N(CC(=O)N2CCOCC2)Cc2ccc(F)cc2)s1` [Example 22, 2-{(4-fluorobenzyl)[2-(morpholin-4-yl)-2-oxoethyl]amino}-N-[3-(1H-imidazol-1-yl)propyl]-1,3-thiazole-5-carboxamide], for which the results for the IC50 (in test [1]; at NAMPT) were 384 nM and 60.2 nM, respectively.

For `COCCC(=O)N(CCc1ccc2c(c1)OCO2)c1ncc(C(=O)NCCCn2ccnc2)s1` [Example 102, 2-{[2-(1,3-benzodioxol-5-yl)ethyl](3-methoxypropanoyl)amino}-N-[3-(1H-imidazol-1-yl)propyl]-1,3-thiazole-5-carboxamide acetate (1:1)], the IC50 in test [1] is 306 nM; at NAMPT, 2.16 nM.

As for `COCCC(=O)N(Cc1ccc(C)cn1)c1ncc(C(=O)NCCCn2ccnc2)s1` [Example 117, N-[3-(1H-imidazol-1-yl)propyl]-2-{(3-methoxypropanoyl)[(5-methylpyridin-2-yl)methyl]amino}-1,3-thiazole-5-carboxamide], the figures for the IC50 (in test [1]; at NAMPT) were 1250 nM and 3.02 nM, respectively.

Consider `COCCC(=O)N(Cc1ccc(OC)nc1)c1ncc(C(=O)NCCCn2ccnc2)s1` [Example 98, N-[3-(1H-imidazol-1-yl)propyl]-2-{(3-methoxypropanoyl)[(6-methoxypyridin-3-yl)methyl]amino}-1,3-thiazole-5-carboxamide], for which the IC50 in test [1] came to 1500 nM; at NAMPT it was 1.47 nM.

As to `C=C[C@@H](CO)NC(=O)N(Cc1ccc(C#N)cc1)c1ncc(C(=O)NCCCn2ccnc2)s1` [Example 131, 2-[(4-cyanobenzyl){[(2S)-1-hydroxybut-3-en-2-yl]carbamoyl}amino]-N-[3-(1H-imidazol-1-yl)propyl]-1,3-thiazole-5-carboxamide], the figures for the IC50 (in test [1]; at NAMPT) were 4780 nM and 0.743 nM, respectively.

Consider `CCOC(=O)CCCNC(=O)N(Cc1ccc(C#N)cc1)c1ncc(C(=O)NCCCn2ccnc2)s1` [Example 160, ethyl 4-{[(4-cyanobenzyl)(5-{[3-(1H-imidazol-1-yl)propyl]carbamoyl}-1,3-thiazol-2-yl)carbamoyl]amino}butanoate], for which the IC50 is > 10000 nM in test [1] and 195 nM at NAMPT.

In the case of `CC(C)CCN(C(=O)C1CC1)c1ncc(C(=O)NCCCn2ccnc2)s1` [Example 152, 2-[(cyclopropylcarbonyl)(3-methylbutyl)amino]-N-[3-(1H-imidazol-1-yl)propyl]-1,3-thiazole-5-carboxamide], the IC50 in test [1] came out at 768 nM; at NAMPT it was 0.232 nM.

Turning to `CC(C)C(=O)NCCNC(=O)N(Cc1ccc(C#N)cc1)c1ncc(C(=O)NCCCn2ccnc2)s1` [Example 147, 2-[(4-cyanobenzyl)({2-[(2-methylpropanoyl)amino]ethyl}carbamoyl)amino]-N-[3-(1H-imidazol-1-yl)propyl]-1,3-thiazole-5-carboxamide], the IC50 in test [1] is > 10000 nM; at NAMPT, 71.9 nM.

As for `COCCCN1CCN(CC(=O)N(Cc2ccc(F)cc2)c2ncc(C(=O)NCCCn3ccnc3)s2)CC1` [Example 38, 2-[(4-fluorobenzyl){[4-(3-methoxypropyl)piperazin-1-yl]acetyl}amino]-N-[3-(1H-imidazol-1-yl)propyl]-1,3-thiazole-5-carboxamide], the IC50 in test [1] is 2690 nM; at NAMPT it was 1.35 nM.

As to `COCCC(=O)N(CCCNC(C)=O)c1ncc(C(=O)NCCCn2ccnc2)s1` [Example 201, 2-{[3-(acetylamino)propyl](3-methoxypropanoyl)amino}-N-[3-(1H-imidazol-1-yl)propyl]-1,3-thiazole-5-carboxamide], the IC50 in test [1] was > 10000 nM; at NAMPT, 0.457 nM.

On to `COCCC(=O)N(Cc1cocn1)c1ncc(C(=O)NCCCn2ccnc2)s1` [Example 95, N-[3-(1H-imidazol-1-yl)propyl]-2-[(3-methoxypropanoyl)(1,3-oxazol-4-ylmethyl)amino]-1,3-thiazole-5-carboxamide], for which the IC50 came to 3890 nM in test [1] and 15.1 nM at NAMPT.

Regarding `CCN(CC)CCCNC(=O)N(Cc1ccc(C#N)cc1)c1ncc(C(=O)NCCCn2ccnc2)s1` [Example 144, 2-[(4-cyanobenzyl){[3-(diethylamino)propyl]carbamoyl}amino]-N-[3-(1H-imidazol-1-yl)propyl]-1,3-thiazole-5-carboxamide], the figures for the IC50 (in test [1]; on NAMPT) were > 10000 nM and 33.2 nM, respectively.

As for `O=C(NCCCn1ccnc1)c1cnc(N(Cc2ccc(F)cc2)C(=O)CN2CCN3CCCC3C2)s1` (stereo not drawn) [Example 33, 2-[(4-fluorobenzyl)(hexahydropyrrolo[1,2-a]pyrazin-2(1H)-ylacetyl)amino]-N-[3-(1H-imidazol-1-yl)propyl]-1,3-thiazole-5-carboxamide], the IC50 was 8950 nM in test [1] and 1.22 nM at NAMPT.

As for `COCCC(=O)N(CC1CCCCO1)c1ncc(C(=O)NCCCn2ccnc2)s1` (stereo not drawn) [Example 177, N-[3-(1H-imidazol-1-yl)propyl]-2-[(3-methoxypropanoyl)(tetrahydro-2H-pyran-2-ylmethyl)amino]-1,3-thiazole-5-carboxamide], the IC50 was determined as 4620 nM in test [1] and 0.653 nM on NAMPT.

`N#Cc1ccc(CCN(C(=O)CC2CCOCC2)c2ncc(C(=O)NCCCn3ccnc3)s2)cc1` [Example 49, 2-{[2-(4-cyanophenyl)ethyl](tetrahydro-2H-pyran-4-ylacetyl)amino}-N-[3-(1H-imidazol-1-yl)propyl]-1,3-thiazole-5-carboxamide]: the IC50 in test [1] is 1690 nM; at NAMPT, 1.07 nM.
